Experimental data taken from EP4613738A1, “LIPID HAVING AMIDE AND ESTER FUNCTIONAL GROUPS, AND METHOD FOR PRODUCING SAME” (Samyang Holdings Corporation, priority 2022, dated 2024).

Columns and labels:
[1] = Particle characteristics of the prepared formulation by particle size analyzer (Dynamic Light Scattering, DLS); type: physicochemical; settings: mRNA formulation; lipid compound:DMG-PEG:DSPC:Cholesterol=50:1.5:10:38.5; N/P ratio 10; buffer exchanged to PBS
Protocol: (§1) The required amounts of the raw materials were mixed in order to meet the N/P ratio (amine group of lipid/phosphate group of mRNA) of 10 and each compound of formulas A to V:DMG-PEG:DSPC:Cholesterol=50:1.5:10:38.5. Ethanol was added to the ethanol layer so that the molecular total of all raw materials was within 12.5 mM, and the aqueous phase and ethanol phase were mixed maintaining a volume ratio of 3:1. After the mixing, to reduce the total ethanol content, buffer exchange was performed as follows: The mixture solution was concentrated by centrifugation at 4,000 rpm to 1/3 using an Amicon-Ultra tube filter (Merk Millipore, UFC505096 or UFC805024, pore size: 50K, volume: 0.5 mL or 4 mL), then diluted with three times the volume of PBS and centrifuged to concentrate. This process was repeated six times to exchange the buffer.
(§2) The more concrete procedure is as follows: • 1) Two autoclaved tubes were prepared (tubes (A) and (B)). • 2) In tube (A), each compound of formulas A to V, DSPC, cholesterol and DMG-PEG in molar quantities calculated according to the experimental conditions were sequentially added and mixed by vortexing. • 3) In the ethanol phase, when necessary, ethanol was added so that the molecular total of all raw materials was within 12.5 mM. • 4) In tube (B), mRNA and 20 mM sodium acetate buffer (pH 4.6) (=prepared by diluting with 3M sodium acetate buffer to 20 mM and titrating to pH 4.6 using 1M HCl) were mixed. At that time, the ratio was calculated and added so that the aqueous phase was total three times the amount of the ethanol phase. • 5) Mixing of Tube (A) and Tube (B) was performed using a Microfluidics (Ignite, Precision Nanosystem) device. Microfluidics operating conditions were FRR (Flow Rate Ratio) of C:R=3:1 and TRR (Total Flow Rate) of 12 mL/min. • 6) The resulting mixture from step 5) was concentrated by centrifugation at 4,000 rpm to 1/3 using an Amicon-Ultra tube filter (50K), then diluted 3-fold with PBS and concentrated by centrifugation. This process was repeated 6 times for concentration to the desired volume.
(§3) • 1) For the prepared formulation, particle characteristics (i.e., Zeta-average particle size (Z-average), polydispersity index (PDI), and zeta-potential) were confirmed using a particle size analyzer (Dynamic Light Scattering, DLS), and the results are shown in Table 1 below. • 2) For the prepared formulation, mRNA encapsulation efficiency was confirmed through Ribo-green assay, and the results are shown in Table 1 below.

[2] = system: mRNA; assay: mRNA encapsulation efficiency of the prepared formulation by Ribo-green assay; type: physicochemical; settings: lipid compound:DMG-PEG:DSPC:Cholesterol=50:1.5:10:38.5, N/P ratio 10, buffer exchanged to PBS
Protocol: as §1, §2, §3

SMILES	PDI (PI) [1]	Z-average [1]	Zeta-potential [1]	Encapsulation efficiency [2]
CCCCOC(=O)CCCCCNC(=O)CCN(C)CCCN(C)CCC(=O)NCCCCCC(=O)OCCCC [Example 6]	0.190 ± 0.011	125.9 ± 1.325 nm	-6.02 ± 2.949 mV	> 87.5%
CCCCCCCCCCC(CCCCCCCC)COC(=O)CCCCCNC(=O)CCN(CCN)CCC(=O)NCCCCCC(=O)OCC(CCCCCCCC)CCCCCCCCCC (centres unmarked) [Example 14]	0.166 ± 0.027	113.8 ± 0.502 nm	-10.39 ± 1.994 mV	> 93.75%
CCCCCCC(CCCCCC)COC(=O)CCCCCCCNC(=O)CCN(CCN)CCC(=O)NCCCCCCCC(=O)OCC(CCCCCC)CCCCCC [Example 15]	0.186 ± 0.015	127.0 ± 0.325 nm	-0.40 ± 0.239 mV	> 93.75%
CCCCCCCCCCCCC(CCCCCCCCCC)COC(=O)CCCCCNC(=O)CCN(CCN)CCC(=O)NCCCCCC(=O)OCC(CCCCCCCCCC)CCCCCCCCCCCC (centres unmarked) [Example 16]	0.128 ± 0.015	128.9 ± 4.714 nm	0.50 ± 3.461 mV	> 93.75%
CCCCCCCCCOC(=O)CCCCCNC(=O)CCN(CCCN(C)C)CCC(=O)NCCCCCC(=O)OCCCCCCCCC [Example 17]	0.167 ± 0.009	127.3 ± 0.955 nm	17.22 ± 3.314 mV	> 93.75%
CCCCCCCCC(CCCCCC)COC(=O)CCCCCNC(=O)CCN(CCC(=O)NCCCCCC(=O)OCC(CCCCCC)CCCCCCCC)CCN1CCOCC1 (centres unmarked) [Example 19]	0.150 ± 0.022	146.7 ± 1.226 nm	-9.39 ± 0.137 mV	> 93.75%
CCCCC/C=C\C/C=C\CCCCCCCCOC(=O)CCCCCNC(=O)CCN(C)CCCN(C)CCC(=O)NCCCCCC(=O)OCCCCCCCC/C=C\C/C=C\CCCCC [Example 21]	0.350 ± 0.009	120.0 ± 4.251 nm	4.43 ± 0.746 mV	> 93.50%
CCCCCCCCC(OC(=O)CCCCCNC(=O)CCN(C)CCCN(C)CCC(=O)NCCCCCC(=O)OC(CCCCCCCC)C1CC1)C1CC1 (centres unmarked) [Example 22]	0.3042 ± 0.026	121.0 ± 4.06 nm	3.56 ± 3.67 mV	> 93.20%

Continued, values first:

PDI (PI) [1]	Z-average [1]	Zeta-potential [1]	Encapsulation efficiency [2]	SMILES
0.231 ± 0.012	147.8 ± 0.979 nm	-7.87 ± 0.754 mV	> 93.75%	CCCCCCC(CCCC)COC(=O)CCCCCNC(=O)CCN(C)CCCN(C)CCC(=O)NCCCCCC(=O)OCC(CCCC)CCCCCC (centres unmarked) [Example 4]
0.156 ± 0.009	137.5 ± 1.364 nm	-6.66 ± 0.365 mV	> 96.9%	CCCCCCC(CCCCCC)COC(=O)CCCCCNC(=O)CCN(C)CCCN(C)CCC(=O)NCCCCCC(=O)OCC(CCCCCC)CCCCCC [Example 5]
0.215 ± 0.018	118.6 ± 2.099 nm	2.04 ± 0.365 mV	> 93.75%	CCCCCCCCCCC(CCCCCCCC)COC(=O)CCCCCNC(=O)CCN(C)CCCN(C)CCC(=O)NCCCCCC(=O)OCC(CCCCCCCC)CCCCCCCCCC (centres unmarked) [Example 7]
0.188 ± 0.007	110.3 ± 1.700 nm	4.83 ± 0.301 mV	> 99.2%	CCCCCCC(CCCCCC)COC(=O)CCCCCCCNC(=O)CCN(C)CCCN(C)CCC(=O)NCCCCCCCC(=O)OCC(CCCCCC)CCCCCC [Example 8]
0.171 ± 0.006	118.2 ± 1.473 nm	6.72 ± 0.073 mV	> 94.1%	CCCCCCCCC(CCCCCC)COC(=O)CCCCCNC(=O)CCN(C)CCCN(C)CCC(=O)NCCCCCC(=O)OCC(CCCCCC)CCCCCCCC (centres unmarked) [Example 10]
0.199 ± 0.007	118.6 ± 0.565 nm	10.96 ± 1.293 mV	> 93.75%	CCCCCCCCC(CCCCCC)COC(=O)CCCCCNC(=O)CCN(CCCN(C)C)CCC(=O)NCCCCCC(=O)OCC(CCCCCC)CCCCCCCC (centres unmarked) [Example 18]
